In patent US8703961B2, “Thiazole derivatives for the treatment of diseases such as cancer” (Merck Patent GmbH, priority 2009, dated 2014):

What was measured:
Experiment in all cases: filter binding kinase assay
Assay type in all cases: biochemical
[1] = target: T1, MINK1 (Homo sapiens, UniProt Q8N4C8); conditions: derived from % inhibition at 1 μM
T1 construct: purchased
In short: (§1)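 Each reaction ran at ambient temperature following a five-minute compound preincubation, was started with ATP (5, 20 or 50 […] stock, per enzyme) and stopped with acid; substrate phosphorylation was read by scintillation counting of P81 filters.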

[2] = target: T2, GSK3B (GSK3b) (Homo sapiens, UniProt P49841); conditions: for IC50: derived from % inhibition at 1 μM
T2 construct: purchased
In short: as §1

[3] = target: T3, PRKCA (Homo sapiens, UniProt P17252); conditions: derived from % inhibition at 1 μM
T3 construct: purchased
In short: as §1

[4] = target: T4, PRKACA (Homo sapiens, UniProt P17612); conditions: derived from % inhibition at 1 μM
T4 construct: purchased
In short: as §1

[5] = target: T5, MAPK13 (Homo sapiens, UniProt O15264); conditions: derived from % inhibition at 1 μM
T5 construct: purchased
T5 sequence (O15264 1-365): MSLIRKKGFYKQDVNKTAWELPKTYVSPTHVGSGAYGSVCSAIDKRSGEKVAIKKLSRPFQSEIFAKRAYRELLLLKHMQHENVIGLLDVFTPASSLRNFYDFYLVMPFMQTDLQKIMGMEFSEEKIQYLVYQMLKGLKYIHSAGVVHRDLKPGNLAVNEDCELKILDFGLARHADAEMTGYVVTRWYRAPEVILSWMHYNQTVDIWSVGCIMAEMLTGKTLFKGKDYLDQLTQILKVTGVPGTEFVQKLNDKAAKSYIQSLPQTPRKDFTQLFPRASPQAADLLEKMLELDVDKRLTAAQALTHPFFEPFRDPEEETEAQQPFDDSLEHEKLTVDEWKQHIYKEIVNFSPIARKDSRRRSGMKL
In short: as §1

[6] = target: T6, PRKAA1 (Homo sapiens, UniProt Q13131); conditions: derived from % inhibition at 1 μM
T6 construct: purchased
In short: as §1

[7] = target: T7, MKNK1 (Homo sapiens, UniProt Q9BUB5); conditions: derived from % inhibition at 1 μM
T7 construct: purchased
In short: as §1

[8] = target: T8, PDPK1 (PDK1) (Homo sapiens, UniProt O15530); conditions: for IC50: derived from % inhibition at 1 μM, first PDPK1 line
T8 construct: purchased
T8 sequence (O15530 1-556): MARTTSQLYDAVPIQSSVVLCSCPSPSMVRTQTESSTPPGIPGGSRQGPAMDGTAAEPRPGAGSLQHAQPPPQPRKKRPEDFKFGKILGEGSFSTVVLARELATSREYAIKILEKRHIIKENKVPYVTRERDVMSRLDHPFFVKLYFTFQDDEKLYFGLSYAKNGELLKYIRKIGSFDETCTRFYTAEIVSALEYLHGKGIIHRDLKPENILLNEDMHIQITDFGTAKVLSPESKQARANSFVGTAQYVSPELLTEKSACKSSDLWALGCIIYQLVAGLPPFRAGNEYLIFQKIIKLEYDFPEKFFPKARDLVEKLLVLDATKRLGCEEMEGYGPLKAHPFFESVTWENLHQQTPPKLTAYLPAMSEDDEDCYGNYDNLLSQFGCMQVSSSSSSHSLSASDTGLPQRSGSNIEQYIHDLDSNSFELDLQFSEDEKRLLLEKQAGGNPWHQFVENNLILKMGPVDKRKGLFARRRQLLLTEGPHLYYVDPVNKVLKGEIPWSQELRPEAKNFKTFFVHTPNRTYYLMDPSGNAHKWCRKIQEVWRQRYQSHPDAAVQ
In short: as §1

[9] = target: T9, PRKD2 (Homo sapiens, UniProt Q9BZL6); conditions: derived from % inhibition at 1 μM
T9 construct: purchased
T9 sequence (Q9BZL6 1-878): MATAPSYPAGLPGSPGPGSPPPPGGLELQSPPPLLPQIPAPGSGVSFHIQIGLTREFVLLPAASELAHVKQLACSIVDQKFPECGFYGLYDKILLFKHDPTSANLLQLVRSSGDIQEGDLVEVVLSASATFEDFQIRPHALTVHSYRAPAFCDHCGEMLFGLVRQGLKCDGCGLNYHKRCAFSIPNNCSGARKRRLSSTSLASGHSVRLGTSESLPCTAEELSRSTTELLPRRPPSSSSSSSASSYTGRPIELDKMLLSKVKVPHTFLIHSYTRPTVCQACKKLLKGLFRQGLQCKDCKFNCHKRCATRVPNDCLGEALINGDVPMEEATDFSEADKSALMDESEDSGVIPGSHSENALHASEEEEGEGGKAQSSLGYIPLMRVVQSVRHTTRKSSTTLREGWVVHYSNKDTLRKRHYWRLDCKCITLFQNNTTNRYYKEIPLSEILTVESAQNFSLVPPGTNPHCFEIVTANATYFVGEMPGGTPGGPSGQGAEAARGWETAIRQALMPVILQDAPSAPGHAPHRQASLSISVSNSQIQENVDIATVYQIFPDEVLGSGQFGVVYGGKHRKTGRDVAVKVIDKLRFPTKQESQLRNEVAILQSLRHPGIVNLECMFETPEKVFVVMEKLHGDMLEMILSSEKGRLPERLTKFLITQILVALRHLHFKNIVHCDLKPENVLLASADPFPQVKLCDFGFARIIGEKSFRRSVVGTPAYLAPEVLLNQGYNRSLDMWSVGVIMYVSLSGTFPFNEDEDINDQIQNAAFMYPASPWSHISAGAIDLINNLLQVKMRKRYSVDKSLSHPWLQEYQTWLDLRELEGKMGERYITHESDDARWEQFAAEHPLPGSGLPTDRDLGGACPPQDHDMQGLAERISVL
In short: as §1

T7 sequence (Q9BUB5 whole entry, species assumed): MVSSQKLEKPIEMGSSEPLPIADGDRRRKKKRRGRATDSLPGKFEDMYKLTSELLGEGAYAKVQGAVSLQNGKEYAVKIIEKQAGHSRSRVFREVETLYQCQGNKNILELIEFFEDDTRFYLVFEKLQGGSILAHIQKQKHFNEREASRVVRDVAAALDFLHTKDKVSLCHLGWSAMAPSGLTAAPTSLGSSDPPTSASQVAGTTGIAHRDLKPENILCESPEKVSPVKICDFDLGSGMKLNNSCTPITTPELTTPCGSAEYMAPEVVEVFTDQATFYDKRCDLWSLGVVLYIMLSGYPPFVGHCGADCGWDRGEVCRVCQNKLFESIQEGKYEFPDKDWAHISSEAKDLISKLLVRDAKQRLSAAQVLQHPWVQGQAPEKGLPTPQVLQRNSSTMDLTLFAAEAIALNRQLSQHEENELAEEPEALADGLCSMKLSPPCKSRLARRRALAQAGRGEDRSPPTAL
T1 sequence (Q8N4C8 whole entry, species assumed): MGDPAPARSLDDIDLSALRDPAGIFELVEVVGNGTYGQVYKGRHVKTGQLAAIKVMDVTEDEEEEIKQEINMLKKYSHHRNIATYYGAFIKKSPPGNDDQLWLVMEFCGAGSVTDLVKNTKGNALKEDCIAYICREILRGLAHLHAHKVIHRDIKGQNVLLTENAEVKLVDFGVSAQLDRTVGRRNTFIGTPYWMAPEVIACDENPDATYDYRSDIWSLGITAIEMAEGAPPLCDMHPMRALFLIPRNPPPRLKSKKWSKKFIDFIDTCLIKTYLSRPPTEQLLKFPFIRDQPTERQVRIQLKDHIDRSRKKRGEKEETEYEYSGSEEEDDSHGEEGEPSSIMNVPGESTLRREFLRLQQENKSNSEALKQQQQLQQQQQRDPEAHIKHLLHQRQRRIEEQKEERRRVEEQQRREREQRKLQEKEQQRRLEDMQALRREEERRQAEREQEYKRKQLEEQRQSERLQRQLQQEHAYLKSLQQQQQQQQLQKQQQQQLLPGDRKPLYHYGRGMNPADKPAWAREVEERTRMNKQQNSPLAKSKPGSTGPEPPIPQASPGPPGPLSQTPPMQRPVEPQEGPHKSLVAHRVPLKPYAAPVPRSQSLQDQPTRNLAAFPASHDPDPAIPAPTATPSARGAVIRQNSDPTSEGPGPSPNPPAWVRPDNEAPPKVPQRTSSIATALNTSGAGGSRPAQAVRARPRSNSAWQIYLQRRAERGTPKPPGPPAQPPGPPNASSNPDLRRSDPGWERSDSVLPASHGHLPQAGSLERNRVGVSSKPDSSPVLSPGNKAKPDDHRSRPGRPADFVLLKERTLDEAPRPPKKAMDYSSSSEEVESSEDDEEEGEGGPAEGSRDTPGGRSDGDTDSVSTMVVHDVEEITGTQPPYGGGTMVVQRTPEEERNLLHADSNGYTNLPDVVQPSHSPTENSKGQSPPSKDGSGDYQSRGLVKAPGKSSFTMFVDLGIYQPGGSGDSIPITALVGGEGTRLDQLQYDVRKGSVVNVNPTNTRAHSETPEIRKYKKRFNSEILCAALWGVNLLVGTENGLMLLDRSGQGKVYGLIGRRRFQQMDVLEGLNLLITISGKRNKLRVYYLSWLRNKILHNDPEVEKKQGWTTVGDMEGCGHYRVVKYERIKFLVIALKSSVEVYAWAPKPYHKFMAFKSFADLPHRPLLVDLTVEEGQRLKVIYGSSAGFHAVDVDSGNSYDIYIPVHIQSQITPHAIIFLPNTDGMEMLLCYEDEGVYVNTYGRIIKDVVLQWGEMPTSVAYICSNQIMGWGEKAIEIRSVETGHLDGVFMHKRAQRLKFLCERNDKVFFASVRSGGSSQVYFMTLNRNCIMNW
T2 sequence (P49841 whole entry, species assumed): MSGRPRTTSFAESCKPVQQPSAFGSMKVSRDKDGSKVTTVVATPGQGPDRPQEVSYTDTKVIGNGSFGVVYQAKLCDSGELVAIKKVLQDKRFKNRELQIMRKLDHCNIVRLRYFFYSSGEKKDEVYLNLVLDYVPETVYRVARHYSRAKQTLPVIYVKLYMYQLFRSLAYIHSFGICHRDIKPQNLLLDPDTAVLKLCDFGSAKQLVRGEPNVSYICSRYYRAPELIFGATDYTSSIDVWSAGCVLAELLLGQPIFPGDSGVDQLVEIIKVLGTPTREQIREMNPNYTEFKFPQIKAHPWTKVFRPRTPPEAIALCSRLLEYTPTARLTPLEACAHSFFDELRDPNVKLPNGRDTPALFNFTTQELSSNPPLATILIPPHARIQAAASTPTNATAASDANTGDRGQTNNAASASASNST
T6 sequence (Q13131 whole entry, species assumed): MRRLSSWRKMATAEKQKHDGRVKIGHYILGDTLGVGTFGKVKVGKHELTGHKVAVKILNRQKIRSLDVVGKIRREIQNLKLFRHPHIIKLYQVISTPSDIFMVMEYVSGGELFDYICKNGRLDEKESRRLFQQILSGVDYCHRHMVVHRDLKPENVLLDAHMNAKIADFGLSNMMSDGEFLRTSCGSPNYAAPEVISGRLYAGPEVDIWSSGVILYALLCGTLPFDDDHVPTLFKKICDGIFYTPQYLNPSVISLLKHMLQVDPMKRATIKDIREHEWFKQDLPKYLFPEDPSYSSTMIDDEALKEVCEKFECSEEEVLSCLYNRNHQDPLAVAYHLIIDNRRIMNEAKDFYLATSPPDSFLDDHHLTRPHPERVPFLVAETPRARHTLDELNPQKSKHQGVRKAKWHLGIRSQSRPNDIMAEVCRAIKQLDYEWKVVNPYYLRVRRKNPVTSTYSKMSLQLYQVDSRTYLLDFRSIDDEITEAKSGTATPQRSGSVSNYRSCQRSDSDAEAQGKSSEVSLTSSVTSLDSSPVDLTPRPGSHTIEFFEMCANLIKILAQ
T6 sequence (Q9Y478 whole entry partner, species assumed): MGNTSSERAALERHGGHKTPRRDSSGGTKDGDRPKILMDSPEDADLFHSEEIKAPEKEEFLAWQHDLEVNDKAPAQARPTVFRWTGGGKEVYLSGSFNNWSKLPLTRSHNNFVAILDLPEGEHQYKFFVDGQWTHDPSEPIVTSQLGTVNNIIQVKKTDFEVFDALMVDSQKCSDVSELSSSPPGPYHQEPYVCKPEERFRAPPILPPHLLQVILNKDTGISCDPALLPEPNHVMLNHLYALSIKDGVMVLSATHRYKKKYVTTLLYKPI
T6 sequence (P54619 whole entry partner, species assumed): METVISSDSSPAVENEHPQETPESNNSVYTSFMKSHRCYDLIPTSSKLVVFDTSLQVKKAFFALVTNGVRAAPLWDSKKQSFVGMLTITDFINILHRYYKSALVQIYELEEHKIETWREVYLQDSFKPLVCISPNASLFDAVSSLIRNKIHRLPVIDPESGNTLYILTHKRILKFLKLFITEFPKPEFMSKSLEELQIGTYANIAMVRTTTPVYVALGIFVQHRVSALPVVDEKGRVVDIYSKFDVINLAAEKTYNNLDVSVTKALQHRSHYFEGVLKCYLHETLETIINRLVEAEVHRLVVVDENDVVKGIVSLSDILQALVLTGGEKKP

| Structure (SMILES) | IC50 [1] [µM] | IC50 [2] [µM] | IC50 [3] [µM] | IC50 [4] [µM] | IC50 [5] [µM] | IC50 [6] [µM] | IC50 [7] [µM] | IC50 [8] [µM] | IC50 [9] [µM] | remaining activity at 1 µM ([2]; read-out: residual kinase activity GSK3b) [%] | remaining activity at 1 µM ([8]; read-out: residual kinase activity PDK1) [%] |
| --- | --- | --- | --- | --- | --- | --- | --- | --- | --- | --- | --- |
| c1ccc(Cc2c[nH]c3ncsc23)cc1 [Compound A7, 6-benzyl-4H-pyrrolo[2,3-d]thiazole] | 1 to 10 | 1 to 10 | 10 to 100 | > 1 | 1 to 10 | 10 to 100 | > 1 | > 1 | 1 to 10 |  |  |
| Nc1ncsc1C#Cc1cnc2[nH]ccc2c1 [Compound A22, 5-(1H-pyrrolo[2,3-b]pyridin-5-ylethynyl)thiazol-4-ylamine] | 1 to 10 | 0.01 to 1 | 1 to 10 | 1 to 10 | 10 to 100 | 10 to 100 | 10 to 100 | 1 to 10 | > 1 | 9 | 53 |
| CC(C)(C)OC(=O)Nc1nc(-c2ccncc2)sc1C#CCN1CCOCC1 [Compound A25, tert-butyl[5-(3-morpholin-4-ylprop-1-ynyl)-2-pyridin-4-ylthiazol-4-yl]-carbamate] | 10 to 100 | > 1 | 10 to 100 | > 1 | > 1 | 10 to 100 | > 1 | > 1 | > 1 |  |  |
| CC(C)(C)OC(=O)Nc1ncsc1C#CCN1C(=O)c2ccccc2C1=O [Compound A26, tert-butyl{5-[3-(1,3-dioxo-1,3-dihydroisoindol-2-yl)prop-1-ynyl]-thiazol-4-yl}carbamate] | 10 to 100 | 1 to 10 | 1 to 10 | 10 to 100 | 10 to 100 | 10 to 100 | > 1 | 1 to 10 | > 1 |  |  |
| Nc1ncsc1C#Cc1cccc(O)c1 [Compound A27, 3-(4-aminothiazol-5-ylethynyl)phenol] | 1 to 10 | 1 to 10 | > 1 | 1 to 10 | 1 to 10 | 1 to 10 | 10 to 100 | > 1 | 1 to 10 |  |  |
